Test results: US10688128B2, “Use of Z-butylidenephthalide in activating autoimmune system” (EVERFRONT BIOTECH INC., priority 2016, dated 2020)

Assays:
[1] = test system: PDL-1 protein; experiment: Expression of PDL-1 protein by Western Blotting, RG2 cell line; type: cell-based; settings: RG2 cell line (rat malignant glioma cells), various concentrations of Z-BP, 24 hours, actin internal control
Experimental: (§1) The RG2 cell line (rat malignant glioma cells), […] cell line (glioblastoma stem cells), Paca2 cell line (human pancreatic cancer cells), […] cell line (human non-small-cell lung cancer cells), or B16 cell line (mouse melanocytoma cells) were independently treated with various concentrations of Z-BP for 24 hours. Then, the proteins in the cells were extracted and the expressions of PDL-1 protein in the cancer cells treated with Z-BP were detected by Western Blotting. In addition, the expression of actin was detected and used as the internal control.

[2] = test system: PDL-1 protein; experiment: Expression of PDL-1 protein by Western Blotting, 1×M cell line; type: cell-based; settings: 1×M cell line (glioblastoma stem cells), various concentrations of Z-BP, 24 hours, actin internal control
Experimental: as §1

[3] = test system: PDL-1 protein; experiment: Expression of PDL-1 protein by Western Blotting, Paca2 cell line; type: cell-based; settings: Paca2 cell line (human pancreatic cancer cells), various concentrations of Z-BP, 24 hours, actin internal control
Experimental: as §1

[4] = test system: PDL-1 protein; experiment: Expression of PDL-1 protein by Western Blotting, H1650 cell line; type: cell-based; settings: H1650 cell line (human non-small-cell lung cancer cells), various concentrations of Z-BP, 24 hours, actin internal control
Experimental: as §1

[5] = test system: PDL-1 protein; experiment: Expression of PDL-1 protein by Western Blotting, B16 cell line; type: cell-based; settings: B16 cell line (mouse melanocytoma cells), various concentrations of Z-BP, 24 hours, actin internal control
Experimental: as §1

[6] = test system: stage three or four melanoma; settings: patients with stage three or four melanoma, Ipilimumab alone; cited from earlier work

Molecule | expression of PDL-1 protein [1] | expression of PDL-1 protein [2] | expression of PDL-1 protein [3] | expression of PDL-1 protein [4] | expression of PDL-1 protein [5] | overall survival rate increased [6] [months]
CCC/C=C1\OC(=O)c2ccccc21 [Z-BP, Z-butylidenephthalide] | significantly decreased | significantly decreased | significantly decreased | significantly decreased | significantly decreased | 
Ipilimumab |  |  |  |  |  | 10.1
